In PubChem BioAssay (NCI):
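These data come from cells grown in 96-well plates and exposed to compound for 48 hours at five concentrations. TGI marks complete inhibition of growth.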

What was measured:
Experiment in all cases: NCI-60 cell line screen, 48 h
[1] = tested on: HT29 colon
[2] = tested on: IGROV1 ovarian
[3] = tested on: M14 melanoma
[4] = tested on: MDA-MB-435
[5] = tested on: UO-31 renal
[6] = tested on: K-562 leukemia
[7] = tested on: NCI/ADR-RES ovarian
[8] = tested on: HCT-116 colon
[9] = tested on: NCI-H23 lung
[10] = tested on: DU-145 prostate
[11] = tested on: LOX IMVI melanoma
[12] = tested on: UACC-62 melanoma
[13] = tested on: OVCAR-3 ovarian
[14] = tested on: SK-MEL-5 melanoma
[15] = tested on: PC-3 prostate
[16] = tested on: HOP-92 NSCLC
[17] = tested on: SK-MEL-2 melanoma
[18] = tested on: SR leukemia
[19] = tested on: SF-539 CNS
[20] = tested on: 786-0 renal
[21] = tested on: BT-549 breast
[22] = tested on: SNB-75 CNS
[23] = tested on: UACC-257 melanoma
[24] = tested on: MCF7 breast
[25] = tested on: SK-OV-3 ovarian
[26] = tested on: NCI-H460 lung
[27] = tested on: HOP-62 NSCLC
[28] = tested on: ACHN renal
[29] = tested on: A549 NSCLC
[30] = tested on: SF-268 CNS
[31] = tested on: MDA-N
[32] = tested on: OVCAR-5 ovarian
[33] = tested on: U251 CNS
[34] = tested on: SK-MEL-28 melanoma
[35] = tested on: MOLT-4 leukemia
[36] = tested on: COLO 205 colon
[37] = tested on: CCRF-CEM leukemia
[38] = tested on: MALME-3M melanoma
[39] = tested on: SW-620 colon
[40] = tested on: EKVX NSCLC
[41] = tested on: TK-10 renal
[42] = tested on: KM12 colon
[43] = tested on: NCI-H522 lung
[44] = tested on: SN12C renal
[45] = tested on: HCT-15 colon
[46] = tested on: T-47D breast
[47] = tested on: OVCAR-8 ovarian
[48] = tested on: RXF 393 renal
[49] = tested on: OVCAR-4 ovarian
[50] = tested on: A498 renal
[51] = tested on: NCI-H226 lung
[52] = tested on: CAKI-1 renal
[53] = tested on: HS 578T breast
[54] = tested on: HCC-2998 colon
[55] = tested on: SF-295 CNS
[56] = tested on: HL-60(TB) leukemia
[57] = tested on: RPMI-8226 leukemia
[58] = tested on: SNB-19 CNS
[59] = tested on: MDA-MB-231 breast

Structure (SMILES): CC(=O)CC1(O)C(=O)c2c(Br)sc(Br)c2C1=O
- TGI [1]: 53.8 µM
- TGI [2]: 35.9 µM
- TGI [3]: 33.1 µM
- TGI [4]: 43.6 µM
- TGI [5]: 50.7 µM
- TGI [6]: 91 µM
- TGI [7]: > 100 µM
- TGI [8]: 35.8 µM
- TGI [9]: 39.2 µM
- TGI [10]: > 100 µM
- TGI [11]: 35 µM
- TGI [12]: 46 µM
- TGI [13]: 31.7 µM
- TGI [14]: 34.2 µM
- TGI [15]: 45.4 µM
- TGI [16]: 34.7 µM
- TGI [17]: 46.7 µM
- TGI [18]: 49.9 µM
- TGI [19]: 49.3 µM
- TGI [20]: 57.6 µM
- TGI [21]: 35.8 µM
- TGI [22]: > 100 µM
- TGI [23]: 41.4 µM
- TGI [24]: > 100 µM
- TGI [25]: > 100 µM
- TGI [26]: > 100 µM
- TGI [27]: 79.4 µM
- TGI [28]: > 100 µM
- TGI [29]: > 100 µM
- TGI [30]: 82.4 µM
- TGI [31]: 45.9 µM
- TGI [32]: 33.9 µM
- TGI [33]: 53.5 µM
- TGI [34]: 46 µM
- TGI [35]: > 100 µM
- TGI [36]: 36.9 µM
- TGI [37]: 43 µM
- TGI [38]: 33.2 µM
- TGI [39]: 55.6 µM
- TGI [40]: 55.8 µM
- TGI [41]: 56.8 µM
- TGI [42]: > 100 µM
- TGI [43]: 36.4 µM
- TGI [44]: 35.4 µM
- TGI [45]: 45.7 µM
- TGI [46]: 83.9 µM
- TGI [47]: 48 µM
- TGI [48]: 51.7 µM
- TGI [49]: 36.4 µM
- TGI [50]: > 100 µM
- TGI [51]: > 100 µM
- TGI [52]: 32.1 µM
- TGI [53]: 95 µM
- TGI [54]: 32.7 µM
- TGI [55]: > 100 µM
- TGI [56]: 50.5 µM
- TGI [57]: > 100 µM
- TGI [58]: > 100 µM

Structure (SMILES): COc1cc2c(c(OC)c1)C(C)=NC(C)C2 (stereo not drawn)
- TGI [1]: > 100 µM
- TGI [2]: > 100 µM
- TGI [3]: > 100 µM
- TGI [4]: > 100 µM
- TGI [5]: > 100 µM
- TGI [6]: > 100 µM
- TGI [8]: > 100 µM
- TGI [59]: > 100 µM
- TGI [9]: > 100 µM
- TGI [10]: > 100 µM
- TGI [11]: > 100 µM
- TGI [12]: > 100 µM
- TGI [14]: > 100 µM
- TGI [15]: > 100 µM
- TGI [18]: > 100 µM
- TGI [19]: > 100 µM
- TGI [20]: > 100 µM
- TGI [21]: > 100 µM
- TGI [23]: > 100 µM
- TGI [24]: > 100 µM
- TGI [25]: > 100 µM
- TGI [26]: > 100 µM
- TGI [27]: > 100 µM
- TGI [28]: > 100 µM
- TGI [29]: > 100 µM
- TGI [30]: > 100 µM
- TGI [31]: > 100 µM
- TGI [34]: > 100 µM
- TGI [35]: > 100 µM
- TGI [36]: > 100 µM
- TGI [37]: > 100 µM
- TGI [38]: > 100 µM
- TGI [39]: > 100 µM
- TGI [40]: > 100 µM
- TGI [41]: > 100 µM
- TGI [42]: > 100 µM
- TGI [43]: > 100 µM
- TGI [44]: > 100 µM
- TGI [45]: > 100 µM
- TGI [46]: > 100 µM
- TGI [47]: > 100 µM
- TGI [50]: > 100 µM
- TGI [51]: > 100 µM
- TGI [52]: > 100 µM
- TGI [53]: > 100 µM
- TGI [54]: > 100 µM
- TGI [55]: > 100 µM
- TGI [56]: > 100 µM
- TGI [57]: > 100 µM
- TGI [58]: > 100 µM
